Results: patent US11382925B2, “Agent for treating retinal disease” (CARNA HEALTH SUPPORT LTD., priority 2017, dated 2022)

Columns and labels:
SGLT2 = target: T1, SGLT2 (Homo sapiens, UniProt P31639); details: cited from earlier work
T1 sequence (P31639 1-672): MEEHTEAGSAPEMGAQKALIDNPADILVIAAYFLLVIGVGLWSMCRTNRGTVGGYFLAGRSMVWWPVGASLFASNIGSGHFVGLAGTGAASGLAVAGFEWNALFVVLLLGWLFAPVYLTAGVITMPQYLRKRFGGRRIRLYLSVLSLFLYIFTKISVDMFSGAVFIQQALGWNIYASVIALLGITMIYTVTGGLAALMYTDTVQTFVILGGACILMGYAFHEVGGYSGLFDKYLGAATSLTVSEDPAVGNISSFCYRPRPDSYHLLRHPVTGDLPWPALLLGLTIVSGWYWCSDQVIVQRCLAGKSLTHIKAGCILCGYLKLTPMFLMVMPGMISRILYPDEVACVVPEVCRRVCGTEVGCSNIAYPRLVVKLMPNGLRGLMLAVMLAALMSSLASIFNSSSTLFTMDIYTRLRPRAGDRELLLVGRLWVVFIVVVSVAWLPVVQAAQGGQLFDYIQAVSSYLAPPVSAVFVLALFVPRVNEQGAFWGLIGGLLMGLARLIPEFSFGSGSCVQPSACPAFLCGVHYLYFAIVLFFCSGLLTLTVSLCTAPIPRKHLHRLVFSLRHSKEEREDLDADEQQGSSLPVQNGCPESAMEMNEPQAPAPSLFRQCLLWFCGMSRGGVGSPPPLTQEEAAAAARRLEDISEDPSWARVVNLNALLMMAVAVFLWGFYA

[1] = authorized minimum dosage amount; compared with canagliflozin; cited from earlier work
[2] = system: retina of an age-related maculopathy mouse model; test: Hematoxylin-Eosin staining of retina, thickness of outer granular layer, in age-related maculopathy mouse model; assay type: in vivo, BALB/c mice; details: vs non-administered AMD mouse
Description: FIG. 4 is a graph showing the thickness of outer granular layer (including visual cells) of the retina of an age-related maculopathy mouse model in numeral terms. […] “***” represents P<0.005 vs control mouse, “#” and “##” each represents P<0.05 vs Ipragliflozin non-administered AMD mouse, and P<0.01 vs Ipragliflozin non-administered AMD mouse, respectively.
(§1) To BALB/c mice, light irradiation (8000 lux, 10 hours) was performed, and then the mice were bred for one week. The existing SGLT2 inhibitor agent ipragliflozin was orally administered in an amount of 0.03 mg/kg/day and 0.1 mg/kg/day for four days including the day of light irradiation. The effects on body weight and blood sugar were confirmed. These models are widely used as age-related maculopathy models.

[3] = Preliminary test: body weight, blood sugar and urinal sugar in light-irradiated age-related maculopathy mouse model; assay type: in vivo, BALB/c mice; details: AMD mouse; for change in body weight as compared to when not administering ipragliflozin: light irradiation 8000 lux 10 hours, bred one week
Description: as §1
FIGS. 1 and 2 show the results of body weight and blood sugar levels when administering the existing SGLT2 inhibitor agent ipragliflozin at 0.03 mg/kg/day and 0.1 mg/kg/day.

[4] = 0.03 mg/kg/day orally for four days
[5] = 0.1 mg/kg/day orally for four days

SMILES	IC50 level showing the inhibition activity, compared with canagliflozin (SGLT2)	maximum blood concentration (Cmax) in the minimum dosage amount, relative to that of canagliflozin [1]	other results
OC[C@H]1O[C@@H](c2ccc(Cl)c(Cc3ccc(O[C@H]4CCOC4)cc3)c2)[C@H](O)[C@@H](O)[C@@H]1O [empagliflozin]	similar	approximately 1/10	
O=C(O)[C@@H]1CCCN1.OC[C@H]1O[C@@H](c2ccc(F)c(Cc3cc4ccccc4s3)c2)[C@H](O)[C@@H](O)[C@@H]1O [ipragliflozin L-proline]	similar	similar	
CCc1ccc(Cc2ccc3c(c2)[C@]2(OC3)O[C@H](CO)[C@@H](O)[C@H](O)[C@H]2O)cc1 [tofogliflozin hydrates, tofogliflozin hydrate]	similar	approximately 1/10	
CCOc1ccc(Cc2cc([C@@H]3S[C@H](CO)[C@@H](O)[C@H](O)[C@H]3O)c(OC)cc2C)cc1 [luseogliflozin hydrate]	similar	approximately 1/10	
OC[C@H]1O[C@@H](c2ccc(F)c(Cc3cc4ccccc4s3)c2)[C@H](O)[C@@H](O)[C@@H]1O [ipragliflozin]			thinning of membrane shown in retina of AMD mouse (thickness of outer granular layer) ([2]; 0.03 mg/kg/day orally): significantly ameliorated; thinning of membrane shown in retina of AMD mouse (thickness of outer granular layer) ([2]; 0.1 mg/kg/day orally): significantly ameliorated; change in urinal sugar as compared to when not administering ipragliflozin ([3]; 0.03 mg/kg/day and 0.1 mg/kg/day orally for four days): no change was observed; change in blood sugar as compared to when not administering ipragliflozin [3, 4]: no change was observed; change in body weight as compared to when not administering ipragliflozin [3, 4]: no change was observed; change in blood sugar as compared to when not administering ipragliflozin [3, 5]: no change was observed; change in body weight as compared to when not administering ipragliflozin [3, 5]: no change was observed
